Activity calls are given as the source filed them. No cut-off for these calls is given here.

Test [1] relates to Tyrophagus putrescentiae. As to the kind of experiment: Insecticidal activity against Tyrophagus putrescentiae in compound treated rapeseed assessed as mortality (LD95) after 126 days (reference value: 2.4 ug/cm'2). Type of test: functional.
Test [2] concerns Tyrophagus putrescentiae. As to the kind of experiment: Insecticidal activity against Tyrophagus putrescentiae in compound treated rapeseed assessed as mortality after 147 days (reference value: 2.4 ug/cm'2). Type of test: functional.
Test [3] concerns Tyrophagus putrescentiae. Kind of test: Insecticidal activity against Tyrophagus putrescentiae from compound treated origin in compound treated rapeseed assessed as respiration ppm of co2 per gram of mite fresh weight per hr at sub-lethal concentration at 25 degC, 85% RH measured after 147 days. Type of test: functional.
Test [4] deals with Tyrophagus putrescentiae. As to the kind of experiment: Insecticidal activity against Tyrophagus putrescentiae from control origin in compound treated rapeseed assessed as increase in population rate at sub-lethal concentration at 25 degC, 85% RH measured after 147 days. Type of test: functional, organism-based.
Test [5] relates to Tyrophagus putrescentiae. Kind of test: Insecticidal activity against Tyrophagus putrescentiae in compound treated rapeseed assessed as mortality (LD95) after 84 days (reference value: 2.4 ug/cm'2). Type of test: functional.
For test [6], the system named is Tyrophagus putrescentiae. As to the kind of experiment: Insecticidal activity against Tyrophagus putrescentiae in compound treated rapeseed assessed as mortality (LD95) after 105 days (reference value: 2.4 ug/cm'2). Type of test: functional.
Test [7] has as its system Tyrophagus putrescentiae. As to the kind of experiment: Insecticidal activity against Tyrophagus putrescentiae in compound treated rapeseed assessed as mortality (LD50) after 147 days (reference value: 0.78 ug/cm'2). Type of test: functional.
In test [8] the test system is Tyrophagus putrescentiae. Kind of test: Insecticidal activity against Tyrophagus putrescentiae in compound treated rapeseed assessed as decrease in population measured after 21 days. Type of test: functional.
In test [9] the test system is Tyrophagus putrescentiae. As to the kind of experiment: Insecticidal activity against Tyrophagus putrescentiae in compound treated rapeseed assessed as mortality (LD50) after 63 days (reference value: 0.78 ug/cm'2). Type of test: functional.
Test [10] has as its system Tyrophagus putrescentiae. As to the kind of experiment: Insecticidal activity against Tyrophagus putrescentiae in compound treated rapeseed assessed as mortality (LD95) after 21 days (reference value: 2.4 ug/cm'2). Type of test: functional.
Test [11] concerns Tyrophagus putrescentiae. Kind of test: Insecticidal activity against Tyrophagus putrescentiae in compound treated rapeseed assessed as decrease in population at 0.15 to 150 ug/100 g of rapeseed measured after 21 days. Type of test: functional, organism-based.
The test system of test [12] is Tyrophagus putrescentiae. As to the kind of experiment: Insecticidal activity against Tyrophagus putrescentiae in compound treated rapeseed assessed as mortality (LD50) after 105 days (reference value: 0.78 ug/cm'2). Type of test: functional.
The subject of test [13] is Tyrophagus putrescentiae. As to the kind of experiment: Insecticidal activity against Tyrophagus putrescentiae in compound treated rapeseed assessed as mortality (LD50) after 42 days (reference value: 0.78 ug/cm'2). Type of test: functional.
The subject of test [14] is Tyrophagus putrescentiae. Kind of test: Insecticidal activity against Tyrophagus putrescentiae from control origin in compound treated rapeseed assessed as respiration ppm of co2 at sub-lethal concentration at 25 degC, 85% RH measured after 147 days. Type of test: functional.
Test [15] has as its system Tyrophagus putrescentiae. As to the kind of experiment: Insecticidal activity against Tyrophagus putrescentiae in compound treated rapeseed assessed as mortality (LD95) after 42 days (reference value: 2.4 ug/cm'2). Type of test: functional.
In test [16] the test system is Tyrophagus putrescentiae. As to the kind of experiment: Insecticidal activity against Tyrophagus putrescentiae in compound treated rapeseed assessed as mortality (LD50) after 84 days (reference value: 0.78 ug/cm'2). Type of test: functional.
Test [17] has as its system Tyrophagus putrescentiae. As to the kind of experiment: Insecticidal activity against Tyrophagus putrescentiae from compound treated origin in compound treated rapeseed assessed as increase in population rate at sub-lethal concentration at 25 degC, 85% RH measured after 147 days. Type of test: functional, organism-based.
Test [18] concerns Tyrophagus putrescentiae. Kind of test: Insecticidal activity against Tyrophagus putrescentiae in compound treated rapeseed assessed as mortality (LD95) after 63 days (reference value: 2.4 ug/cm'2). Type of test: functional.
The test system of test [19] is Tyrophagus putrescentiae. As to the kind of experiment: Insecticidal activity against Tyrophagus putrescentiae in compound treated rapeseed assessed as mortality (LD50) after 126 days (reference value: 0.78 ug/cm'2). Type of test: functional.
The test system of test [20] is Tyrophagus putrescentiae. As to the kind of experiment: Insecticidal activity against Tyrophagus putrescentiae in compound treated rapeseed assessed as mortality (LD50) after 21 days (reference value: 0.78 ug/cm'2). Type of test: functional.

In the case of `Cc1c(COC(=O)[C@@H]2[C@H](/C=C(\Cl)C(F)(F)F)C2(C)C)cccc1-c1ccccc1` [BIFENTHRIN], the LD95 with Tyrophagus putrescentiae [1] is given as 1.6 microg/cm2; in the test with Tyrophagus putrescentiae [2] it was 1.8 microg/cm2; in the test on Tyrophagus putrescentiae [5], 2.3 microg/cm2; with Tyrophagus putrescentiae [6], 2.9 microg/cm2; in the test on Tyrophagus putrescentiae [10], 1.6 microg/cm2; in the test on Tyrophagus putrescentiae [15], 2.4 microg/cm2. In addition, the LD95 in the test on Tyrophagus putrescentiae [18] is 2 microg/cm2. Also, the Activity in the test on Tyrophagus putrescentiae [3] is on record as 745 ppm/g/hr; in the test on Tyrophagus putrescentiae [14], 896 ppm/g/hr. The result in the test with Tyrophagus putrescentiae [4] and with Tyrophagus putrescentiae [17] was inactive. In addition, the LD50 worked out at 0.16 microg/cm2 with Tyrophagus putrescentiae [7]; 0.24 microg/cm2 in the test on Tyrophagus putrescentiae [9]; 1.14 microg/cm2 in the test on Tyrophagus putrescentiae [12]; 0.65 microg/cm2 with Tyrophagus putrescentiae [13]; 0.46 microg/cm2 in the test with Tyrophagus putrescentiae [16]; 0.44 microg/cm2 in the test with Tyrophagus putrescentiae [19]. In addition, the LD50 with Tyrophagus putrescentiae [20] was determined as 0.44 microg/cm2. For the same compound, in the test with Tyrophagus putrescentiae [8], the ED50 is 2.7 µg. In the test with Tyrophagus putrescentiae [11], the result was Active.

The values above are taken from ChEMBL document CHEMBL3045151, “Long-term pre-exposure of the pest mite Tyrophagus putrescentiae to sub-lethal residues of bifenthrin on rapeseed did not affect its susceptibility to bifenthrin” (2011).
